Laboratory results reported in US20150260740A1, “COMPOSITION FOR USE AS AN ABNORMAL COAGULATION CONTROL PLASMA IN IN VITRO ASSAYS” (GRIFOLS, S.A., priority 2014, published 2015).

Columns and labels:
Type in all cases: biochemical
[1] = tested on: citrated normal human plasma; assay: prothrombin time (PT) haemostasis assay; details: for effect on percentage of PT activity versus plasma having no anticoagulant: anticoagulant added to normal plasma: ferulic acid 0.5%, 1%, 1.5%, heparin 0.1, 0.5, 1 IU/mL, EDTA 0.5, 1, 1.5 mg/mL, FIG. 1-3; for effect on PT assay: summary statement, added to normal plasma, concentration not stated (EDTA: at a certain concentration)
Description: (§1) To assess the effect of different anticoagulants in various haemostasis assays, different plasma compositions were prepared. Use was made of citrated normal human plasma (16 mM of citrate), stored at a temperature of below −70° C. and thawed in a bath at 37° C. HEPES was then added up to a final concentration of 40 mM and the pH was adjusted to between 7.4 and 7.6 using NaOH 1N. Various plasma compositions were prepared. No anticoagulant was added to the first composition, which was used as a control. Increasing concentrations of the anticoagulants being analysed were added to the others: ferulic acid (0.5% , 1% and 1.5%), heparin (0.1 IU/mL, 0.5 IU/mL and 1 IU/mL) and EDTA (0.5 mg/mL, 1 mg/mL, 1.5 mg/mL). Each plasma composition was analysed for the aforementioned PT, aPTT, TT and RT assays in a Q Haemostasis Analyzer (Diagnostic Grifols, Spain) using the reagents DG-PT, DG-APTT Synth, DG-TT L Human and GD-Fibroclotin of Diagnostic Grifols.
FIG. 1-3 show the results obtained in the PT assay with the various anticoagulants and plot the time obtained in the PT assay as a function of the concentration of the anticoagulant present in the plasma. The control (plasma having no anticoagulant) is shown by triangles and the compositions comprising ferulic acid, heparin and EDTA are shown by squares. […] On the other hand, ferulic acid and EDTA added to normal plasma do produce a reduction in the percentage of PT activity.

[2] = tested on: citrated normal human plasma; assay: thrombin time (TT) haemostasis assay; details: for effect on TT assay result versus plasma having no anticoagulant: anticoagulant added to normal plasma: ferulic acid 0.5%, 1%, 1.5%, heparin 0.1, 0.5, 1 IU/mL, EDTA 0.5, 1, 1.5 mg/mL, FIG. 7-9
Description: as §1
The same plasmas prepared in Example 1 were tested in the TT assay. FIG. 7-9 show the TT results obtained when testing the prepared plasmas.

[3] = tested on: citrated normal human plasma; assay: reptilase time (RT) haemostasis assay; details: for effect on RT assay result versus plasma having no anticoagulant: anticoagulant added to normal plasma: ferulic acid 0.5%, 1%, 1.5%, heparin 0.1, 0.5, 1 IU/mL, EDTA 0.5, 1, 1.5 mg/mL, FIG. 10-12; for effect on RT assay: summary statement, added to normal plasma, concentration not stated (EDTA: at a certain concentration)
Description: as §1
The same plasmas prepared in Example 1 were tested in the RT assay.

[4] = tested on: citrated normal human plasma; assay: activated partial thromboplastin time (aPTT) haemostasis assay; details: summary statement, added to normal plasma; concentration not stated (EDTA: at a certain concentration)
Description: as §1
The same plasmas prepared in Example 1 were tested in the aPTT assay (FIG. 4-6). […] In addition, the prolongation in the result of the assay is proportional to the amount of anticoagulant present in the plasma.

| Compound | effect on percentage of PT activity versus plasma having no anticoagulant [1] | effect on TT assay result versus plasma having no anticoagulant [2] | effect on RT assay result versus plasma having no anticoagulant [3] | effect on PT assay [1] | effect on aPTT assay [4] | effect on TT assay ([2]; summary statement, added to normal plasma, EDTA at a certain concentration) | effect on RT assay [3] |
| --- | --- | --- | --- | --- | --- | --- | --- |
| COc1cc(/C=C/C(=O)O)ccc1O [ferulic acid] | produce a reduction in the percentage of PT activity that is proportional to the amount of anticoagulant present in the plasma | do produce an abnormal TT | do produce an abnormal RT result | – | – | – | – |
| O=C(O)CN(CCN(CC(=O)O)CC(=O)O)CC(=O)O [EDTA, ethylenediaminetetraacetic acid] | produce a reduction in the percentage of PT activity that is proportional to the amount of anticoagulant present in the plasma | does not prolong the result of the assay | do produce an abnormal RT result | does not affect the results of PT, aPTT and TT assays, or does so very slightly | does not affect the results of PT, aPTT and TT assays, or does so very slightly | does not affect the results of PT, aPTT and TT assays, or does so very slightly | can prolong the RT assay |
| heparin | has no effect on the PT assay | do produce an abnormal TT | does not prolong the RT at any of the concentrations tested | does not affect the PT assay, or does so to a lesser extent | prolongs the aPTT assay | – | does not prolong the RT assay |
